# From patent US4051237A, “Glycopeptide antibiotics Bu-2231 A and B and process for producing same” (priority 1975, dated 1977)
# What was measured:
# E. coli NIHJ [1] = test: MIC by two-fold agar dilution; assay type: cell-based; settings: Mueller-Hinton agar, unit assumed
# K. pneumoniae D11 = test: MIC by two-fold agar dilution; assay type: cell-based; settings: Mueller-Hinton agar, unit assumed
# K. pneumoniae A9678 = test: MIC by two-fold agar dilution; assay type: cell-based; settings: Mueller-Hinton agar, unit assumed
# K. pneumoniae A20328 = test: MIC by two-fold agar dilution; assay type: cell-based; settings: Mueller-Hinton agar, unit assumed
# P. mirabilis A9554 = test: MIC by two-fold agar dilution; assay type: cell-based; settings: Mueller-Hinton agar, unit assumed
# P. stuartii A20894 = test: MIC by two-fold agar dilution; assay type: cell-based; settings: Mueller-Hinton agar, unit assumed
# S. marcescens A20333 = test: MIC by two-fold agar dilution; assay type: cell-based; settings: Mueller-Hinton agar, unit assumed
# S. marcescens A21235 = test: MIC by two-fold agar dilution; assay type: cell-based; settings: Mueller-Hinton agar, unit assumed
# P. aeruginosa A9930 = test: MIC by two-fold agar dilution; assay type: cell-based; settings: Mueller-Hinton agar, unit assumed
# P. aeruginosa H9, D113 = test: MIC by two-fold agar dilution; assay type: cell-based; settings: Mueller-Hinton agar, unit assumed
# P. aeruginosa A20741 = test: MIC by two-fold agar dilution; assay type: cell-based; settings: Mueller-Hinton agar, unit assumed
# S. aureus Smith A9537 = test: MIC by two-fold agar dilution; assay type: cell-based; settings: Mueller-Hinton agar, unit assumed
# S. aureus #193 = test: MIC by two-fold agar dilution; assay type: cell-based; settings: Mueller-Hinton agar, unit assumed
# S. aureus A20239 = test: MIC by two-fold agar dilution; assay type: cell-based; settings: Mueller-Hinton agar, unit assumed
# S. aureus BX-1633,A9606 = test: MIC by two-fold agar dilution; assay type: cell-based; settings: Mueller-Hinton agar, unit assumed
# M. flavus D12 = test: MIC by two-fold agar dilution; assay type: cell-based; settings: Mueller-Hinton agar, unit assumed
# B. mycoides "0" = assay type: cell-based; settings: Mueller-Hinton agar, unit assumed
# B. sphaericus #122 = test: MIC by two-fold agar dilution; assay type: cell-based; settings: Mueller-Hinton agar, unit assumed
# B. cereus ATCC 10702A = test: MIC by two-fold agar dilution; assay type: cell-based; settings: Mueller-Hinton agar, unit assumed
# B. subtilis PCI-219 = test: MIC by two-fold agar dilution; assay type: cell-based; settings: Mueller-Hinton agar, unit assumed
# Mycobacterium 607, D87 = test: MIC by two-fold agar dilution; assay type: cell-based; settings: Medium #1001, unit assumed
# Mycobacterium 607, D46 = test: MIC by two-fold agar dilution; assay type: cell-based; settings: Medium #1001, unit assumed
# Mycobacterium phlei, D88 = test: MIC by two-fold agar dilution; assay type: cell-based; settings: Medium #1001, unit assumed
# [2] = system: Mycobacterium ranae, ATCC110; test: MIC by two-fold agar dilution; assay type: cell-based; settings: Medium #1001, unit assumed
# C. albicans IAM 4888 = test: MIC by two-fold agar dilution; assay type: cell-based; settings: Ca-1 C. albicans IAM 4888; sabouraud agar; unit assumed
# C. albicans Nystatin-R = test: MIC by two-fold agar dilution; assay type: cell-based; settings: Ca-2 C. albicans Nystatin-R; sabouraud agar; unit assumed
# [3] = system: C. albicans #520 Yale A9540; test: MIC by two-fold agar dilution; assay type: cell-based; settings: Ca-4 C. albicans #520 Yale A9540; sabouraud agar; unit assumed
# C. krusei IAM 4489 = test: MIC by two-fold agar dilution; assay type: cell-based; settings: Ck-1 C. krusei IAM 4489; sabouraud agar; unit assumed
# C. tropicalis IAM 4157 = test: MIC by two-fold agar dilution; assay type: cell-based; settings: Ct-1 C. tropicalis IAM 4157; sabouraud agar; unit assumed
# Hormodendrum sp. = test: MIC by two-fold agar dilution; assay type: cell-based; settings: Hy-1 Hormodendrum sp.; sabouraud agar; unit assumed
# Mucor sp. = test: MIC by two-fold agar dilution; assay type: cell-based; settings: My-1 Mucor sp.; sabouraud agar; unit assumed
# [4] = system: F. moniliforme NRRL A2284; test: MIC by two-fold agar dilution; assay type: cell-based; settings: Fm-1 F. moniliforme NRRL A2284; sabouraud agar; unit assumed
# C. lunata ATCC 13432 = test: MIC by two-fold agar dilution; assay type: cell-based; settings: Cl-1 C. lunata ATCC 13432; sabouraud agar; unit assumed
# P. citrinum IAM 7008 = test: MIC by two-fold agar dilution; assay type: cell-based; settings: Pt-1 P. citrinum IAM 7008; sabouraud agar; unit assumed
# T. mentagrophytes D-155 = test: MIC by two-fold agar dilution; assay type: cell-based; settings: Tm-1 T. mentagrophytes D-155; sabouraud agar; unit assumed
# T. rubrum D-55 = test: MIC by two-fold agar dilution; assay type: cell-based; settings: Tr-1 T. rubrum D-55; sabouraud agar; unit assumed
# M. canis D-51 = test: MIC by two-fold agar dilution; assay type: cell-based; settings: Mc-1 M. canis D-51; sabouraud agar; unit assumed
# E. coli NIHJ [5] = test: In vivo activity in experimental mice infection; settings: Table 11 second part
# Method: The in vivo activity of Bu-2231 complex was evaluated in experimental mice infections against S. aureus Smith and E. coli NIHJ. Bleomycin was tested comparatively as a reference antibiotic.
# The in vivo activty of the individual components of Bu-2231 in each of the copper-free and copper complex forms was also determined in E. coli infection.
substance,measurement,setting,value
Bleomycin [reference compound],MIC,E. coli NIHJ [1],0.8 µg/mL
same,MIC,K. pneumoniae D11,0.2 µg/mL
same,MIC,K. pneumoniae A9678,6.3 µg/mL
same,MIC,K. pneumoniae A20328,25 µg/mL
same,MIC,P. mirabilis A9554,50 µg/mL
same,MIC,P. stuartii A20894,3.1 µg/mL
same,MIC,S. marcescens A20333,> 100 µg/mL
same,MIC,S. marcescens A21235,100 µg/mL
same,MIC,P. aeruginosa A9930,> 100 µg/mL
same,MIC,"P. aeruginosa H9, D113",> 100 µg/mL
same,MIC,P. aeruginosa A20741,12.5 µg/mL
same,MIC,S. aureus Smith A9537,3.1 µg/mL
same,MIC,S. aureus #193,12.5 µg/mL
same,MIC,S. aureus A20239,12.5 µg/mL
same,MIC,"S. aureus BX-1633,A9606",6.3 µg/mL
same,MIC,M. flavus D12,50 µg/mL
same,MIC,"B. mycoides ""0""",12.5 µg/mL
same,MIC,B. sphaericus #122,6.3 µg/mL
same,MIC,B. cereus ATCC 10702A,1.6 µg/mL
same,MIC,B. subtilis PCI-219,< 0.0063 µg/mL
same,MIC,"Mycobacterium 607, D87",0.8 µg/mL
same,MIC,"Mycobacterium 607, D46",0.2 µg/mL
same,MIC,"Mycobacterium phlei, D88",0.2 µg/mL
same,MIC,[2],0.8 µg/mL
same,MIC,C. albicans IAM 4888,12.5 µg/mL
same,MIC,C. albicans Nystatin-R,12.5 µg/mL
same,MIC,[3],> 100 µg/mL
same,MIC,C. krusei IAM 4489,12.5 µg/mL
same,MIC,C. tropicalis IAM 4157,12.5 µg/mL
same,MIC,Hormodendrum sp.,0.8 µg/mL
same,MIC,Mucor sp.,3.1 µg/mL
same,MIC,[4],> 100 µg/mL
same,MIC,C. lunata ATCC 13432,0.1 µg/mL
same,MIC,P. citrinum IAM 7008,> 100 µg/mL
same,MIC,T. mentagrophytes D-155,> 100 µg/mL
same,MIC,T. rubrum D-55,> 100 µg/mL
same,MIC,M. canis D-51,> 100 µg/mL
same,PD50 (median protective dose),"E. coli NIHJ [5]; E. coli NIHJ infection, mice, sc",2.55 mg/kg
same,"In vivo activity, E. coli NIHJ infection (x/5 mice)",E. coli NIHJ [5]; dose (sc) 0.13 mg/kg,0/5
same,"In vivo activity, E. coli NIHJ infection (x/5 mice)",E. coli NIHJ [5]; dose (sc) 0.5 mg/kg,1/5
same,"In vivo activity, E. coli NIHJ infection (x/5 mice)",E. coli NIHJ [5]; dose (sc) 2 mg/kg,1/5
same,"In vivo activity, E. coli NIHJ infection (x/5 mice)",E. coli NIHJ [5]; dose (sc) 8 mg/kg,5/5
